The target in one experiment is T1, human MER (528-end) (Homo sapiens, UniProt Q12866).
T1 construct: human MER (528-end); purchased Carnabio, Japan
T1 sequence (Q12866 528-999 limits assumed): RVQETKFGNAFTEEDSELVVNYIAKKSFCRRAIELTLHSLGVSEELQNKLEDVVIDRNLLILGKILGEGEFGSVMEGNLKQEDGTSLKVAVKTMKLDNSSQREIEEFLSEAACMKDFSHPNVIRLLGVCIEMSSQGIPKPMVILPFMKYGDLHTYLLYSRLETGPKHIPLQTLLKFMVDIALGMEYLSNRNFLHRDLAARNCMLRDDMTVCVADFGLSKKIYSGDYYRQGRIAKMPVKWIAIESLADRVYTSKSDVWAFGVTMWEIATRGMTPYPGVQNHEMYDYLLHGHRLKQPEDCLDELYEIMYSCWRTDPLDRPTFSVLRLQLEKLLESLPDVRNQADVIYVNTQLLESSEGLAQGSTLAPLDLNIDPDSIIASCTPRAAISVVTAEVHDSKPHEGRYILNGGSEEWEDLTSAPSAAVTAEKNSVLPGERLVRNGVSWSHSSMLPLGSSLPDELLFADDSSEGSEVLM
Put plainly: HTRF kinase activity biochemical assay, MER.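 Also: phosphorylation of a biotin-tagged tyrosine kinase substrate detected by Eu3+-cryptate antibody and streptavidin-XL665 time-resolved fluorescence, read after 1 h at room temperature.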 Conditions: recombinant kinase, 10 uM ATP, 30 minutes pre-incubation; read-out: HTRF MERTK IC50. Background: Time-resolved FRET reads energy transfer from a long-lived donor to a nearby acceptor.

For another experiment, the target named is T2, human AXL (473-end) (Homo sapiens, UniProt P30530).
T2 construct: human AXL (473-end); purchased SignalChem, Canada
T2 sequence (P30530 473-894 limits assumed): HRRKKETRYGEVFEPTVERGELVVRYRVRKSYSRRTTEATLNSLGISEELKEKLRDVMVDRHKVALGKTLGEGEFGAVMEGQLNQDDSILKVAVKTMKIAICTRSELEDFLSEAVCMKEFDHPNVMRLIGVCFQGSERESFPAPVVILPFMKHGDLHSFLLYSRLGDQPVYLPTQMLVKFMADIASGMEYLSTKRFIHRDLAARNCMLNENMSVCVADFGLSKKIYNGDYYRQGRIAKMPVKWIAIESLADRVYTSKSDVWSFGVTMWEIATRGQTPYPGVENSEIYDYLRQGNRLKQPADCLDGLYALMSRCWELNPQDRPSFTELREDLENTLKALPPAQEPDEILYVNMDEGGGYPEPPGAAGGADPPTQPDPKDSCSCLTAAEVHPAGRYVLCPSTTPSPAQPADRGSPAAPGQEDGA
The experiment can be described thus: HTRF kinase activity biochemical assay, AXL.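 Also: phosphorylation of a biotinylated tyrosine kinase substrate detected via Eu3+-cryptate anti-TK antibody and streptavidin-XL665, fluorescence read after a 1 h incubation at room temperature.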 Conditions: recombinant kinase, 10 uM ATP, 30 minutes pre-incubation; read-out: HTRF AXL IC50.

For the next experiment, the target named is T3, TYRO3 (455-end) (Homo sapiens, UniProt Q06418).
T3 construct: TYRO3 (455-end); purchased SignalChem, Canada
T3 sequence (Q06418 455-890 limits assumed): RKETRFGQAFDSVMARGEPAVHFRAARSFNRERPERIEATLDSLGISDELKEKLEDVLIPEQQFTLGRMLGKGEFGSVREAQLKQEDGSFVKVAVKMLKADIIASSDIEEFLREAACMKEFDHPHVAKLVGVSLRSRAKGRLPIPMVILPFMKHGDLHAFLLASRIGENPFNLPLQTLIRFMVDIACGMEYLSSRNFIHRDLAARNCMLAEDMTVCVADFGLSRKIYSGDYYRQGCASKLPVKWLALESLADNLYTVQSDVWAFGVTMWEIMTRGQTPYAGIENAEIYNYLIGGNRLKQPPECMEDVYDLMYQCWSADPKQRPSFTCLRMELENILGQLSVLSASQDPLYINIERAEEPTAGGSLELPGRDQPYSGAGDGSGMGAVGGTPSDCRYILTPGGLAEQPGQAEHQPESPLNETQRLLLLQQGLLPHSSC
The experiment can be described thus: HTRF kinase activity biochemical assay, TYRO3.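 Also: biotinylated tyrosine kinase substrate phosphorylation detected via streptavidin-XL665 and Eu3+-cryptate anti-phospho antibody time-resolved fluorescence, read after 1 h detection at room temperature, 384-well format.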 Conditions: recombinant kinase, 10 uM ATP, 30 minutes pre-incubation; read-out: HTRF TYRO IC50.

As usually defined, the IC50 is the point on the concentration scale where inhibition reaches its midpoint.

Regarding `Cn1cc(Nc2ncc(C3CN(c4nc5ccc(OCC(C)(C)CO)cc5o4)C3)nc2C(N)=O)cn1` [Example 61, 6-{1-[6-(3-hydroxy-2,2-dimethylpropoxy)-1,3-benzoxazol-2-yl]azetidin-3-yl}-3-[(1-methyl-1H-pyrazol-4-yl)amino]pyrazine-2-carboxamide], the IC50 at human MER (528-end) is under 1 nM; on human AXL (473-end), 1 nM; on TYRO3 (455-end), 26 nM.

For the compound `Cn1cc(Nc2ncc(C3CN(c4nc5ccc(CCC(=O)N6CCCC6)cc5o4)C3)nc2C(N)=O)cn1` [Example 63, 3-[(1-methyl-1H-pyrazol-4-yl)amino]-6-(1-{6-[3-oxo-3-(pyrrolidin-1-yl)propyl]-1,3-benzoxazol-2-yl}azetidin-3-yl)pyrazine-2-carboxamide], the IC50 at human MER (528-end) is 11 nM; on human AXL (473-end) it was 16 nM; on TYRO3 (455-end), 4300 nM.

Turning to `Cn1cc(Nc2ccc(C3CN(c4nc5ccc(OCC(C)(C)OC(=O)CN)cc5o4)C3)nc2C(N)=O)cn1` [Example 108, 1-{[2-(3-{6-carbamoyl-5-[(1-methyl-1H-pyrazol-4-yl)amino]pyridin-2-yl}azetidin-1-yl)-1,3-benzoxazol-6-yl]oxy}-2-methylpropan-2-yl glycinate], the results for the IC50 at human MER (528-end), at human AXL (473-end) and on TYRO3 (455-end) were under 1 nM, 4 nM and 880 nM, respectively.

For `NC(=O)c1nc(C2CN(c3nc4ccc(F)cc4o3)C2)cnc1Nc1cnn(CC(O)CO)c1` (stereo not drawn) [Example 36, 3-{[1-(2,3-dihydroxypropyl)-1H-pyrazol-4-yl]amino}-6-[1-(6-fluoro-1,3-benzoxazol-2-yl)azetidin-3-yl]pyrazine-2-carboxamide], the IC50 on human MER (528-end) is 1 nM; on human AXL (473-end) it was 9 nM; at TYRO3 (455-end), 170 nM.

`Cn1cc(Nc2ncc(C3CN(c4nc5ccc(OCC6CC6)cc5o4)C3)nc2C(N)=O)cn1` [Example 23, 6-{1-[6-(cyclopropylmethoxy)-1,3-benzoxazol-2-yl]azetidin-3-yl}-3-[(1-methyl-1H-pyrazol-4-yl)amino]pyrazine-2-carboxamide]: the half-inhibitory concentration (IC50) at human MER (528-end) was under 1 nM; on human AXL (473-end) it was under 1 nM; at TYRO3 (455-end) it was 8 nM.

On to `CCOC(=O)Cn1cc(COc2ccc3nc(N4CC(c5cnc(Nc6cnn(C)c6)c(C(N)=O)n5)C4)oc3c2)cn1` [Example 104C, ethyl [4-({[2-(3-{6-carbamoyl-5-[(1-methyl-1H-pyrazol-4-yl)amino]pyrazin-2-yl}azetidin-1-yl)-1,3-benzoxazol-6-yl]oxy}methyl)-1H-pyrazol-1-yl]acetate], for which the half-inhibitory concentration (IC50) on human MER (528-end) was found to be 4 nM; on human AXL (473-end) it was 27 nM; at TYRO3 (455-end), 620 nM.

`Cn1cc(Nc2ncc(C3CN(c4nc5ccc(OCC(CO)CO)cc5o4)C3)nc2C(N)=O)cn1` [Example 51, 6-(1-{6-[3-hydroxy-2-(hydroxymethyl)propoxy]-1,3-benzoxazol-2-yl}azetidin-3-yl)-3-[(1-methyl-1H-pyrazol-4-yl)amino]pyrazine-2-carboxamide]: the values for the 50% inhibitory concentration (IC50) on human MER (528-end), at human AXL (473-end) and at TYRO3 (455-end) were 3 nM, 6 nM and 1740 nM, respectively.

With `Cn1cc(Nc2ncc(C3CN(c4nc5ccc(C6=CCCCC6)cc5o4)C3)nc2C(N)=O)cn1` [Example 6, 6-{1-[6-(cyclohex-1-en-1-yl)-1,3-benzoxazol-2-yl]azetidin-3-yl}-3-[(1-methyl-1H-pyrazol-4-yl)amino]pyrazine-2-carboxamide], the values for the IC50 on human MER (528-end), on human AXL (473-end) and at TYRO3 (455-end) were under 1 nM, 1.04 nM and 72 nM, respectively.

On to `Cn1cc(Nc2ncc(C3CN(c4nc5ccc(C6CCCC6)cc5o4)C3)nc2C(N)=O)cn1` [Example 10, 6-[1-(6-cyclopentyl-1,3-benzoxazol-2-yl)azetidin-3-yl]-3-[(1-methyl-1H-pyrazol-4-yl)amino]pyrazine-2-carboxamide], for which the results for the IC50 on human MER (528-end), on human AXL (473-end) and on TYRO3 (455-end) were under 1 nM, under 1 nM and 110 nM, respectively.

In the case of `Cn1cc(Nc2ncc(C3CN(c4nc5ccc(OCC6(O)CCC6)cc5o4)C3)nc2C(N)=O)cn1` [Example 44, 6-(1-{6-[(1-hydroxycyclobutyl)methoxy]-1,3-benzoxazol-2-yl}azetidin-3-yl)-3-[(1-methyl-1H-pyrazol-4-yl)amino]pyrazine-2-carboxamide], the results for the IC50 on human MER (528-end), on human AXL (473-end) and at TYRO3 (455-end) were under 1 nM, 2 nM and 110 nM, respectively.

For `C[Si](C)(C)CCOCn1cc(Nc2ncc(C3CN(c4nc5ccc(O)cc5o4)C3)nc2C(N)=O)cn1` [Example 0, 6-[1-(6-hydroxy-1,3-benzoxazol-2-yl)azetidin-3-yl]-3-[(1-{[2-(trimethylsilyl)ethoxy]methyl}-1H-pyrazol-4-yl)amino]pyrazine-2-carboxamide], the IC50 at human MER (528-end) was determined as 34 nM; on human AXL (473-end), 60 nM; on TYRO3 (455-end) it was 2680 nM.

On to `Cn1cc(Nc2ncc(C3CN(c4nc5ccc(C6=CCCC6)cc5o4)C3)nc2C(N)=O)cn1` [Example 10A, 6-{1-[6-(cyclopent-1-en-1-yl)-1,3-benzoxazol-2-yl]azetidin-3-yl}-3-[(1-methyl-1H-pyrazol-4-yl)amino]pyrazine-2-carboxamide], for which the IC50 at human MER (528-end) was 3 nM; on human AXL (473-end), 4 nM; at TYRO3 (455-end), 690 nM.

Regarding `Cn1cc(Nc2ncc(C3CN(c4nc5ccc(OCCC(C)(C)OC(=O)CN)cc5o4)C3)nc2C(N)=O)cn1` [Example 95, 4-{[2-(3-{6-carbamoyl-5-[(1-methyl-1H-pyrazol-4-yl)amino]pyrazin-2-yl}azetidin-1-yl)-1,3-benzoxazol-6-yl]oxy}-2-methylbutan-2-yl glycinate], the concentration for half-maximal inhibition (IC50) at human MER (528-end) is under 1 nM; at human AXL (473-end), 3 nM; at TYRO3 (455-end), 280 nM.

As to `COc1cnc(Oc2ccc3nc(N4CC(c5cnc(Nc6cnn(C)c6)c(C(N)=O)n5)C4)oc3c2)nc1` [Example 102, 6-(1-{6-[(5-methoxypyrimidin-2-yl)oxy]-1,3-benzoxazol-2-yl}azetidin-3-yl)-3-[(1-methyl-1H-pyrazol-4-yl)amino]pyrazine-2-carboxamide], the IC50 on human MER (528-end) is under 1 nM; at human AXL (473-end), 2 nM; on TYRO3 (455-end) it was 100 nM.

Turning to `Cn1cc(Nc2ncc(C3CN(c4nc5ccc(OCC(C)(C)OP(=O)(O)O)cc5o4)C3)nc2C(N)=O)cn1` [Example 112, 1-{[2-(3-{6-carbamoyl-5-[(1-methyl-1H-pyrazol-4-yl)amino]pyrazin-2-yl}azetidin-1-yl)-1,3-benzoxazol-6-yl]oxy}-2-methylpropan-2-yl dihydrogen phosphate], the half-maximal inhibitory concentration (IC50) on human MER (528-end) amounted to 52 nM; on human AXL (473-end), 69 nM; on TYRO3 (455-end), 5860 nM.

On to `CCOC(=O)COc1ccc2nc(N3CC(c4cnc(Nc5cnn(C)c5)c(C(N)=O)n4)C3)oc2c1` [Example 26, ethyl {[2-(3-{6-carbamoyl-5-[(1-methyl-1H-pyrazol-4-yl)amino]pyrazin-2-yl}azetidin-1-yl)-1,3-benzoxazol-6-yl]oxy}acetate], for which the IC50 on human MER (528-end) was under 1 nM; at human AXL (473-end), 3 nM; on TYRO3 (455-end), 94 nM.

On to `Cc1ccc2nc(N3CC(c4cnc(Nc5cn[nH]c5)c(C(N)=O)n4)C3)oc2c1` [Example 74, 6-[1-(6-methyl-1,3-benzoxazol-2-yl)azetidin-3-yl]-3-[(1H-pyrazol-4-yl)amino]pyrazine-2-carboxamide], for which the IC50 is 2 nM on human MER (528-end), 4 nM at human AXL (473-end) and 130 nM at TYRO3 (455-end).

These data come from patent publication US20260232658A1, “AZETIDINYL BENZOXAZOLE COMPOUNDS AND THEIR USE AS MER AND AXL INHIBITORS” (DONG-A ST CO., LTD., priority 2022, published 2026).
